Measurements taken from patent publication US20170313664A1, “NOVEL FORM OF PYRIMIDINE COMPOUND HAVING DIBENZYLAMINE STRUCTURE” (KOWA COMPANY, LTD., priority 2013, published 2017).

Test: Heat stability test (remaining percentage by HPLC peak area after preservation in a glass bottle)
Format: physicochemical
Details: for Remaining percentage (%) of pyrimidine compound (1): HPLC area percentage, 242 nm
Method: A test compound was placed in a glass bottle, and it was then preserved for a predetermined period of time under temperature conditions of 80° C., 100° C., or 120° C. Thereafter, the remaining percentage (%) of the pyrimidine compound (1) in the test compound was measured.
The remaining percentage was obtained by measuring the rate of the pyrimidine compound (1) contained in the test compound according to high performance liquid chromatography and expressing the measured value as a peak area percentage. In the measurement according to high performance liquid chromatography, an ODS column was used as a column, and a mixture of two solvents, namely, a 0.1% TFA aqueous solution and a 0.1% TFA acetonitrile solution, was used as a solvent. The detection wavelength was set at 242 nm.
From the obtained area percentage of the pyrimidine compound (1), the remaining percentage was calculated according to the following calculation formula.
Remaining percentage (%)=Area percentage of pyrimidine compound (1) after preservation/area percentage of pyrimidine compound (1) before preservation×100
As test compounds, the crystal obtained in Example 1-3 (a crystal of the pyrimidine compound (1) hydrochloride) and a free form of the pyrimidine compound (1) were used.

[1] = After preservation at 80° C. for 72 hours
[2] = After preservation at 100° C. for 24 hours
[3] = After preservation at 120° C. for 16 hours

SMILES	Remaining percentage (%) of pyrimidine compound (1) [1] [%]	Remaining percentage (%) of pyrimidine compound (1) [2] [%]	Remaining percentage (%) of pyrimidine compound (1) [3] [%]	Heat stability (overall assessment) (conclusion from the test results of Table 8 (80-120° C.))
CCN(C[C@H]1CC[C@H](CC(=O)O)CC1)c1ccc(C(F)(F)F)cc1CN(c1ncc(OCCS(C)(=O)=O)cn1)[C@@H](C)c1cc(C(F)(F)F)cc(C(F)(F)F)c1.Cl [(S)-trans-{4-[({2-[({1-[3,5-bis(trifluoromethyl)phenyl]ethyl}{5-[2-(methylsulfonyl)ethoxy]pyrimidin-2-yl}amino)methyl]-4-(trifluoromethyl)phenyl}(ethyl)amino)methyl]cyclohexyl}acetic acid monohydrochloride]	100.0	100.0	99.5	excellent heat stability
CCN(C[C@H]1CC[C@H](CC(=O)O)CC1)c1ccc(C(F)(F)F)cc1CN(c1ncc(OCCS(C)(=O)=O)cn1)[C@@H](C)c1cc(C(F)(F)F)cc(C(F)(F)F)c1 [Free form of pyrimidine compound (1), (S)-trans-{4-[({2-[({1-[3,5-bis(trifluoromethyl)phenyl]ethyl}{5-[2-(methylsulfonyl)ethoxy]pyrimidin-2-yl}amino)methyl]-4-(trifluoromethyl)phenyl}(ethyl)amino)methyl]cyclohexyl}acetic acid]	99.5	89.3	71.5	–
